Reference: ChEMBL document CHEMBL4609985, “Superior inhibition of influenza virus hemagglutinin-mediated fusion by indole-substituted spirothiazolidinones” (Bioorg Med Chem, 2020)

Key:
[1] = Inhibition of Influenza A virus H3N2 A/X-31 hemagglutinin 3 E572K mutant expressed in HeLa cells assessed as polykaryon formation preincubated for 15 mins and further incubated for 15 mins with acidic buffer containing compounds at pH 5.2 by giemsa staining based microscopic analysis; assay type: cell-based, Influenza A virus (A/X-31(H3N2))
[2] = Inhibition of Influenza A virus H3N2 A/X-31 hemagglutinin 3 D1122N expressed in HeLa cells assessed as polykaryon formation preincubated for 15 mins and further incubated for 15 mins with acidic buffer containing compounds at pH 5.6 by giemsa staining based microscopic analysis; assay type: cell-based, Influenza A virus (A/X-31(H3N2))

## Cc1nc2sccn2c1C(=O)NN1C(=O)C(C)SC12CCC(C)CC2 (centres undefined)
[1]
  EC50: 9 µM
[2]
  EC50: > 25 µM

## Cc1c(C(=O)NN2C(=O)C(C)SC23CCC(C)CC3)[nH]c2ccc(Cl)cc12 (centres undefined)
[1]
  EC50: ≥ 13 µM
[2]
  EC50: > 25 µM

## Cc1c(C(=O)NN2C(=O)C(C)SC23CCCC(C)C3)[nH]c2ccc(Cl)cc12 (centres undefined)
[1]
  EC50: > 25 µM
[2]
  EC50: > 25 µM

## CCC1CCC2(CC1)SC(C)C(=O)N2NC(=O)c1[nH]c2ccc(Cl)cc2c1C (centres undefined)
[1]
  EC50: > 25 µM
[2]
  EC50: ≥ 21 µM

## Cc1c(C(=O)NN2C(=O)C(C)SC23CCCCC3)[nH]c2ccc(Cl)cc12 (centres undefined)
[1]
  EC50: > 25 µM
[2]
  EC50: > 25 µM

## CC(C)(C)c1cc(O)ccc1O [E319]
[1]
  EC50: 12 µM
[2]
  EC50: > 400 µM

## CCOC(=O)c1c(CSc2ccccc2)n(C)c2cc(Br)c(O)c(CN(C)C)c12 [UMIFENOVIR]
[1]
  EC50: > 200 µM
[2]
  EC50: > 200 µM
